Measured values: patent US8349316B2, “Lactobacillus fermentum SG-A95 for improving oral bacterial groups and health care compositions thereof” (priority 2010, dated 2013)

How the values were obtained:
[1] = tested on: Actinomyces viscosus (ATCC 15987); experiment: Disc agar diffusion test; assay type: cell-based; details: 6 mm paper disc, 37, anaerobic, 24 hours, mean±S.D. (n=3); zone not over 6 mm = negative
Method: (§1) Lactobacillus fermentum SG-[…] was cultured in liquid medium. MRS medium was used in this embodiment. […]. The fermentation broth was concentrated into 30-fold of original concentration and dialyzed with SPECTRA/POR® Dialysis Membrane (MWCO:3500, Spectrum Laboratories Inc, CA) for 48 hours. Lactobacillus fermentum SG-[…] and concentrate fermentation product were diluted into various concentrations according to experimental requirements. Disc agar diffusion test, broth dilution method, and co-cultivation test of Lactobacillus fermentum SG-[…] with Streptococcus mutans (ATCC 25175), Streptococcus sanguis (ATCC 49295), Porphyromonas gingivalis (ATCC 33277), and Actinomyces viscosus (ATCC 15987) were separately performed to understand the inhibition of pathogen growth. Above four pathogens strains were purchased from Bioresource Collection and Research Center of Food Industry Research and Development Institute in Taiwan or ATCC. […] Dip bacteria culture with sterile cotton swab for 3 seconds, and each bacteria was smeared on agar plates in three directions to evenly distribute the incoculum. After dialyzing 30-fold fermentation product of Lactobacillus fermentum SG-[…], adjust concentrate to 4-fold concentrate (LFP4), 2-fold concentrate (LFP2) and 1-fold (LFP1) (unconcentrated fermentation broth). […] The diameter of sterile paper disc was 6 mm. The positive bacterial inhibition effect was determined by over 6 mm bacterial inhibition zone. Otherwise, it was defined as negative bacterial inhibition effect. The cultural condition was under the temperature of 37 for 24 hours. The paper disc was used in control group containing tetracycline. The inhibition zone value was shown as mean±S.D. (n=3).

[2] = tested on: Porphyromonas gingivalis (ATCC 33277); experiment: Disc agar diffusion test; assay type: cell-based; details: 6 mm paper disc, 37, anaerobic, 24 hours, mean±S.D. (n=3); zone not over 6 mm = negative
Method: as §1

[3] = tested on: Streptococcus mutans (ATCC 25175); experiment: Disc agar diffusion test; assay type: cell-based; details: 6 mm paper disc, 37, anaerobic, 24 hours, mean±S.D. (n=3); zone not over 6 mm = negative
Method: as §1

[4] = tested on: Streptococcus sanguis (ATCC 49295); experiment: Disc agar diffusion test; assay type: cell-based; details: 6 mm paper disc, 37, anaerobic, 24 hours, mean±S.D. (n=3); zone not over 6 mm = negative
Method: as §1

[5] = tested on: artificially induced periodontal disease (ligature wire, Streptococcus mutans inoculated in gum tissue); experiment: Evaluation of preventive effect for animal periodontal disease; assay type: in vivo, Balb/c mice; details: prevention group; for mice periodontal pocket depth: mean±S.D., listed as pTC
Method: (§2) This trial included treatment groups and control groups. The-treatment group of Lactobacillus fermentum SG-A95 were divided into 6 groups as follows: 3 groups of dialyzed Lactobacillus fermentum SG-A95 fermentation product concentrate such as 4-fold, 2-fold, and 1-fold (unconcentrated fermentation broth) and 3 groups of Lactobacillus fermentum SG-A95 in various numbers of bacteria such as 1×10^9, 2×10^9 and 5×10^9. Two control groups were treated with 0.267 mg/mL of tetracycline and distilled water.
Twelve of 8-week-old female Balb/c mice were selected for each group (Table 2). The mice were administered with various concentrations of Lactobacillus fermentum SG-A95 fermentation product or live Lactobacillus fermentum SG-A95, and 1 mL of 0.267 mg/mL tetracyccline or distilled water separately. […] Their pathological symptoms were observed and recorded until sacrificing all animals. Until the control group (feeding with distilled water, mock-treated group) showing gum swelling and dental plaque appearance diagnosed by chief dentists, the ligature wire was removed and inoculation of dental pathogen was stopped. At day 4, 8, 12, and 16 after wire removal, mice periodontal pocket depth was examined, 3 mice from each group were killed for blood sampling and samples were collected for histological analysis.
(§3) Control group was used as a standard to examine subjects from each group by Mann-Whitney test.
(§4) Experimental data was shown as mean±S.D. The statistical variation of treatment groups and control groups of mice periodontal pocket was performed by One-Way ANOVA and Dunnett multiple post hoc comparison in longitudinal study, and by One-Way ANOVA and LSD multiple post hoc comparison in cross-sectional study. Besides, Mann-Whitney test was used to examine the number of periodontal pocket improving individuals. The statistical significance level of p value was 0.05.

[6] = tested on: artificially induced periodontal disease (ligature wire, Streptococcus mutans inoculated in gum tissue); experiment: Evaluation of therapeutic effect for animal periodontal disease; assay type: in vivo, Balb/c mice; details: treatment group; for mice periodontal pocket depth: mean±S.D.
Method: as §2
Twelve of 8-week-old female Balb/c mice were selected for each group (Table 3). […] After diagnosis of diseased tissue by chief dentists, they were administered different concentrations of Lactobacillus fermentum SG-A95 fermentation product, live Lactobacillus fermentum SG-A95, 1 mL of 0.267 mg/mL tetracycline or distill water every day. The symptoms were recorded. The wire was removed at the beginning of the treatment and stop periodontal pathogen inoculation. At day 4, 8, 12, and 16 after wire removal, mice periodontal pocket depth was examined. 3 mice from each group were killed for blood sampling and histological analysis.
as §3, §4

## CN(C)[C@@H]1C(O)=C(C(N)=O)C(=O)[C@@]2(O)C(O)=C3C(=O)c4c(O)cccc4[C@@](C)(O)[C@H]3C[C@@H]12 [tetracycline]
[1]
  Bacterial inhibition zone, Actinomyces viscosus: 48.2 ± 2.4 mm
[2]
  Bacterial inhibition zone, Porphyromonas gingivalis: 33.4 ± 2.2 mm
[3]
  Bacterial inhibition zone, Streptococcus mutans: 29.7 ± 2.0 mm
[4]
  Bacterial inhibition zone, Streptococcus sanguis: 25.9 ± 1.2 mm
[5]; Day 4, against pMT by Mann-Whitney test
  periodontal pocket improvement percentage (percentage of improving individual): 62%
[5]; Day 4 after wire removal
  mice periodontal pocket depth: 0.84 ± 0.50 mm
[5]; Day 8, against pMT by Mann-Whitney test
  periodontal pocket improvement percentage (percentage of improving individual): 50%
[5]; Day 8 after wire removal
  mice periodontal pocket depth: 0.70 ± 0.34 mm
[5]; Day 12, against pMT by Mann-Whitney test
  periodontal pocket improvement percentage (percentage of improving individual): 71%
[5]; Day 12 after wire removal
  mice periodontal pocket depth: 0.56 ± 0.26 mm
[5]; Day 16, against pMT by Mann-Whitney test
  periodontal pocket improvement percentage (percentage of improving individual): 100%
[5]; Day 16 after wire removal
  mice periodontal pocket depth: 0.49 ± 0.25 mm
[6]; Day 4, against tMT by Mann-Whitney test
  periodontal pocket improvement percentage (percentage of improving individual): 30%
[6]; Day 4 after wire removal, listed as pTC
  mice periodontal pocket depth: 1.05 ± 0.64 mm
[6]; Day 4 after wire removal, listed as tTC
  mice periodontal pocket depth: 1.05 ± 0.64 mm
[6]; Day 8, against tMT by Mann-Whitney test
  periodontal pocket improvement percentage (percentage of improving individual): 20%
[6]; Day 8 after wire removal, listed as pTC
  mice periodontal pocket depth: 0.89 ± 0.44 mm
[6]; Day 8 after wire removal, listed as tTC
  mice periodontal pocket depth: 0.89 ± 0.44 mm
[6]; Day 12, against tMT by Mann-Whitney test
  periodontal pocket improvement percentage (percentage of improving individual): 47%
[6]; Day 12 after wire removal
  mice periodontal pocket depth: 0.63 ± 0.37 mm
[6]; Day 16, against tMT by Mann-Whitney test
  periodontal pocket improvement percentage (percentage of improving individual): 33%
[6]; Day 16 after wire removal, listed as pTC
  mice periodontal pocket depth: 0.61 ± 0.34 mm
[6]; Day 16 after wire removal, listed as tTC
  mice periodontal pocket depth: 0.48 ± 0.33 mm
